In paper PMC3586143 (Drugs in R&D, 2012):
Read-outs that look alike come from different tables or passages of the source. Values belong to the compound of their own block, whether it stands above or below them.

Assays:
[1] = in vivo; for tmax, median (range): 300 mg
clinical = conditions: male, human, in vivo, po, 200 mg/day; for AUC: AUC24, gmean; for Cmax: gmean
[2] = system: vascular endothelial growth factor and epidermal growth factor; conditions: cellular assays for VEGF and EGF; cited from earlier work
healthy male subjects [3] = assay: Study A: safety and tolerability assessments; format: in vivo
[4] = for half-life: t½, gmean (CV%)
[5] = for increase in AUC504: vandetanib + itraconazole compared with vandetanib alone
healthy male subjects [6] = assay: Study B: safety and tolerability assessments; format: in vivo

SMILES: CC(O)C(C)n1ncn(-c2ccc(N3CCN(c4ccc(OCC5COC(Cn6cncn6)(c6ccc(Cl)cc6Cl)O5)cc4)CC3)cc2)c1=O (stereo not shown) [hydroxy-itraconazole]
AUC (clinical): 7690 ng·h/mL | Cmax (clinical): 413 ng/mL

SMILES: COc1cc2c(Nc3ccc(Br)cc3F)ncnc2cc1OCC1CC[N+](C)([O-])CC1 (stereo not shown) [vandetanib N-oxide]
increase in AUCct [1]: 126% | time post-dose by which plasma concentrations were nonquantifiable [1]: 96 to 240 h | tmax, median (range) [1]: 7 h | activity relative to vandetanib (fold less active) [2]: > 50 fold

SMILES: COc1cc2c(Nc3ccc(Br)cc3F)ncnc2cc1OCC1CCN(C)CC1 [vandetanib]
tolerability (healthy male subjects [3]; single dose 300 mg): well tolerated | change in mean corrected QT (QTC) interval (healthy male subjects [3]; vandetanib alone or in combination with rifampicin): no clinically important changes | subjects with increase from baseline in QTC interval of >60 ms (healthy male subjects [3]; vandetanib in combination with rifampicin): One subject | subjects reporting adverse events (healthy male subjects [3]; vandetanib in the presence of rifampicin): 31.3% | median time to Cmax ([4]; both studies (A and B), vandetanib 300 mg single dose): 5 to 6 h | Tmax ([4]; male, human, plasma, oral, 300 mg): 6 h | half-life ([4]; male, human, plasma, oral, 300 mg, after vandetanib 300 mg alone): 218 h | half-life ([4]; male, human, plasma, oral, after vandetanib 300 mg + rifampicin): 116 h | Tmax ([5]; male, human, in vivo, 300 mg): 5 h | increase in AUC504 [5]: 9% | increase in AUC504 ([5]; listed as Vandetanib): about 9% | subjects with increase from baseline in QTC of >60 ms (healthy male subjects [6]): Three subjects | increase in mean QTC interval after the dose (healthy male subjects [6]; at each timepoint): ≤ 20 ms | tolerability (healthy male subjects [6]; single dose 300 mg): well tolerated | subjects reporting adverse events (healthy male subjects [6]; vandetanib in the absence of itraconazole): 31.3%

Further lines, results first:

AUC504 of metabolite as % of AUC504 of vandetanib [1]: ≈ 7% | tmax, median (range) [1]: 5 h
SMILES: COc1cc2c(Nc3ccc(Br)cc3F)ncnc2cc1OCC1CCNCC1 [N-desmethylvandetanib]

AUC (clinical): 5040 ng·h/mL | Cmax (clinical): 424 ng/mL
SMILES: CCC(C)n1ncn(-c2ccc(N3CCN(c4ccc(OCC5COC(Cn6cncn6)(c6ccc(Cl)cc6Cl)O5)cc4)CC3)cc2)c1=O (stereo not shown) [itraconazole, reference compound]
